Experimental data as given in patent publication US20030073730A1, “Use of amino-isoxazolidone compounds for treatment of memory impairment following traumatic brain injury” (G.D. Searle & Co., priority 1994, published 2003).

Assays:
[1] = target: T1, NMDA receptor complex, [3H]TCP binding to synaptic plasma membranes (Rattus norvegicus, UniProt P35439); assay: Assay B: TCP Modulation Assay (stimulation of [3H]TCP binding); conditions: for effect on glycine dose-response of [3H]TCP binding: D-cycloserine 0-100 μM
T1 construct: Triton X-100 washed synaptic plasma membranes (SPM) prepared from rat forebrain; from tissue; host or cells: rat forebrain synaptic plasma membranes (male Sprague-Dawley, 30-45 days old), Triton X-100 washed
Experimental: [^3H]TCP binding was performed using Triton X-100 washed synaptic plasma membranes (SPM) prepared from rat forebrain (30-45 day old, male SpragueDawley; Sasco, St. Charles, Mo.) as described previously [J. W. Thomas, W. F. Hood, J. B. Monahan, P. C. Contreras and T. L. O'Donohue, Brain Res., 442, 396-398 (1988)]. […] The samples were then filtered through glass fiber filters (Schleicher and Schuell #32) which were pretreated with 0.05% (v/v) polyethylenimine. The filters were washed and the radioactivity quantitated by liquid scintillation spectrometry. […] The EC50 values for the stimulation of [^3H]TCP binding were determined using a four parameter logistic regression analysis.

[2] = test system: mentally disturbed patients; conditions: 500 mg per day; cited from earlier work
[3] = test system: elderly population; conditions: absence of scopolamine, single oral doses of 5 and 15 mg; cited from earlier work
[4] = test system: patients with post-traumatic memory impairment; assay: Assay C: Post-Traumatic Memory Impairment Study (WMS and MAS); assay type: in vivo, human; design: MAS Visual Memory score, least-square mean corrected for baseline / MAS Visual Memory, mean change from baseline / WMS Logical Memory score, mean / WMS Visual Reproduction score, mean / MAS Visual Memory score, mean / MAS Short Term Memory score, mean / MAS Verbal Memory score, mean: scale not given here
Experimental: The primary objective of this pilot study was to assess in patients with post-traumatic memory impairment: 1) The effect of a single 15 mg dose of cycloserine using the Wechsler Memory Scale (WMS) [D. Wechsler, Wechsler Memory Scale, Manual., Psychological Corporation, New York (1945)]; and 2) The effect of 5 multiple doses of 15 mg of cycloserine over 72 hours using the Memory Assessment Scales (MAS) [J. M Williams, The Memory Assessment Scales., Pyschological Assessment Resources, Odessa, Fla. (1991)]. The secondary objective of this study was to evaluate the safety of cycloserine in patients with traumatic brain injury.
The study was conducted by six investigators at six investigational sites in the United States. This was a multicenter, randomized, doubleblind, parallel group, placebo-controlled study in headtrauma patients who were experiencing significant memory disorder. Patients were randomized to receive placebo or 15 mg doses of cycloserine for a total of five equally spaced doses (morning and evening) over a 72-hour period. Safety and efficacy measurements were obtained at the screening and on Days 1 through 4 of the study. A sufficient number of patients were enrolled in the study to assure that 60 evaluable patients (30 in the cycloserine treatment group and 30 in the placebo treatment group) would complete the study.
Patients considered for enrollment were to have sustained closed head injury (ICD-9-CM#800) and post-traumatic memory impairment established by clinical examination supported by the Hahnemann Orientation and Memory Examination (HOME) [J. M. Williams, In: C. J. Long, L. Ross and M. Mutchnick, eds. Traumatic Brain Injury, Plenum, N.Y. (1990)]. The Anterograde Amnesia score was to be between 0 and 21 inclusive and the patient was to have sufficient cognitive recovery to complete the Hahnemann Memory Screening Test (MST) with a score of at least 9 [J. M. Williams, Ibid.]. Patients were to be at least 18 years of age, weighing between 40 and 100 kg, and female patients could not be at risk of pregnancy. Patients were to have a stable medical condition following the traumatic injury and be judged by the investigator to have adequate nutritional status. [Patients could have other traumatic injuries provided they were under treatment and there was no clinically significant infection or general sepsis.]
Criteria for exclusion from the study included current or history of significant systemic disorder, brain disorder, or any neurological disorder with cognitive implications other than traumatic brain injury (e.g., brain tumor). Also excluded were patients with current or history of diagnosed epilepsy or documented convulsions, or clinically significant abnormalities of thyroid function, folic acid or B12. Clinically significant cardiovascular, renal, pulmonary, hepatic, gastrointestinal, infectious or hematological illness could preclude patient participation in the study (judgment of the Investigator). Concomitant medication, or medication given within seven days prior to the start of the study could preclude patient participation in the study (judgment of the Investigator and/or Clinical Monitor). Inability to follow study procedures, poor comprehension of study language, uncorrectable loss of hearing or eyesight which would interfere with study participation excluded patients from the study. Patients who had received an acridine derivative within 90 days prior to enrollment or another investigational drug within 30 days enrollment or who were known to have a hypersensitivity to cycloserine or related compounds were also excluded. This study also excluded patients taking or expected to take Hydergine, cerebral vasodilators, nootropics, choline, lecithin or amino acids. Clinically significant laboratory values outside the normal range or previous admission to the study excluded patients from participation in the study.
All study medication was provided by G. D. Searle & Co., Skokie, Ill. […]

[5] = test system: normal young and elderly human volunteers; conditions: single oral doses of 5 and 15 mg; cited from earlier work

## c1csc(C2(N3CCCCC3)CCCCC2)c1 [[^3H]TCP]
[1]; basal conditions
  Kd: 44 nM

## NCC(=O)O [Glycine]
[1]; 0.6 μM glycine, basal binding 2583±381 DPM
  maximum specific [3H]TCP binding: 4712±779 DPM

## NC1CONC1=O (single isomer, unassigned) [D-cycloserine, 4-amino-3-isoxazolidone]
[2]
  clinical response in mental disorders: improvements in depression, insomnia, anexoria or tension were found for some patients
[3]
  effect on cognitive parameters: significant positive effects on the cognitive parameters
[1]; glycine concentrations 0.1-15 μM
  effect on glycine dose-response of [3H]TCP binding: rightward shift in the dose-response curve
[1]; glycine concentrations below 0.1 μM
  effect on glycine dose-response of [3H]TCP binding: potentiated the glycine stimulation
[1]; in the presence of glycine 0.1-0.6 μM
  effect on glycine stimulation of [3H]TCP binding: reduces the maximal level of glycine stimulation
[4]; Baseline
  MAS Short Term Memory score, mean: 81.7
  MAS Verbal Memory score, mean: 78.2
  MAS Visual Memory score, mean: 77.2
[4]; Baseline, prior to first dose
  WMS Logical Memory score, mean: 8.88
  WMS Visual Reproduction score, mean: 8.70
[4]; Day 2, after one 15 mg dose
  WMS Logical Memory score, mean: 8.24
  WMS Visual Reproduction score, mean: 8.42
[4]; Day 2, one dose, p=0.59
  WMS Visual Reproduction score corrected for baseline versus placebo: did not differ significantly
[4]; Day 2, one dose, p=0.72
  WMS Logical Memory score corrected for baseline versus placebo: did not differ significantly
[4]; Day 4, after five 15 mg doses
  MAS Short Term Memory score, mean: 85.9
  MAS Verbal Memory score, mean: 75.8
  MAS Visual Memory score, mean: 85.5
[4]; Day 4, five 15 mg doses, placebo 78.7
  MAS Visual Memory score, least-square mean corrected for baseline: 87.5
[4]; Day 4, five 15 mg doses, placebo −1.50
  MAS Visual Memory, mean change from baseline: 8.54
[4]; Day 4, p=0.023
  MAS Visual Memory score versus placebo: significantly higher
[4]; Day 4, p=0.31
  MAS Verbal Memory versus placebo: not significantly different
[4]; Day 4, p=0.72
  MAS Short Term Memory versus placebo: not significantly different
[5]
  effect on scopolamine-induced memory deficits: can ameliorate some memory deficits induced by scopolamine
